Measurements as given in patent US20160355483A1, “COMPOUND BINDING TO PPARG BUT NOT ACTING AS PROMOTER AND PHARMACEUTICAL COMPOSITION FOR TREATING PPARG-RELATED DISEASES CONTAINING SAME AS ACTIVE INGREDIENT” (Hyundai Pharm Co., Ltd., priority 2014, published 2016).

Biological target: T1, PPARG (peroxisome proliferator activated receptor-gamma), GST-PPARG-LBD (Homo sapiens, UniProt P37231)
T1 construct: 15 μL of 5 nM GST-PPARG-LBD and 5 nM Tb-GST-antibody were added; purchased Invitrogen PV4894
T1 sequence (P37231 238-503 limits assumed): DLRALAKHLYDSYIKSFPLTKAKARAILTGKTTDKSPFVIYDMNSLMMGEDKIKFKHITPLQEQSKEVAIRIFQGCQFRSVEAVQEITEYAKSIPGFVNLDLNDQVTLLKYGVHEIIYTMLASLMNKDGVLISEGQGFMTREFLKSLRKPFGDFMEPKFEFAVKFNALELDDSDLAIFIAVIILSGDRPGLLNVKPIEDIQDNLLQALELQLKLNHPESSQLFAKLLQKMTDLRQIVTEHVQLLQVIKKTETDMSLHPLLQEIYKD
Test: LanthaScreen TR-FRET PPARG Competitive Binding Assay
Parameters: key: “+” indicates the degree of the binding activity, and as the number of “+” increases, the binding activity is stronger; ++: “+” indicates the degree of the binding activity, and as the number of “+” increases, the binding activity is stronger; +++: “+” indicates the degree of the binding activity, and as the number of “+” increases, the binding activity is stronger; ++++: “+” indicates the degree of the binding activity, and as the number of “+” increases, the binding activity is stronger
Details: degree of binding activity
Method in brief: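 Ratio of 518 nm to 488 nm time-resolved emission after a 1 h room-temperature incubation, in competition format with GST-PPARG ligand-binding domain. Values are expressed as 100% minus compound-to-vehicle ratio and related to rosiglitazone binding.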

**Q.** NC(=O)c1ccccc1-c1ccc(CN2CCOc3cc(C(=O)NCc4ccncc4)ccc32)cc1 [Example 98, 4-((2′-carbamoyl-[1,1′-biphonyl]-4-yl)methyl)-N-(pyridine-4-ylmethyl)-3,4-dihydro-2H-benzo[b][1,4]oxazine-7-carboxamide] was tested. Which “Binding assay (1 μLM)” value did it give?
**A.** The value was “+”.

**Q.** For C[C@H](NC(=O)c1ccc2c(c1)OCCN2Cc1ccc(-c2ccccc2C(=O)O)cc1)c1c(F)cccc1F [Example 83, (S)-4′-((7-((1-(2,6-fluorophenyl)ethyl)carbamoyl)-2H-benzo[b][1,4]oxazine-4(3H)-yl)methyl)-[1,1′-biphenyl]-2-carboxylic acid], which “Binding assay (1 μLM)” value is on record?
**A.** Its value is “++”.

**Q.** C[C@H](NC(=O)c1ccc2c(c1)CCCN2Cc1ccc(-c2ccccc2C(N)=O)cc1)c1cccc2ccccc12 [Example 38, (S)-1-((2′-carbamoyl-[1,1′-biphenyl]-4-yl)methyl)-N-(1-(naphthalene-1-yl)ethyl)-1,2,3,4-tetrahydroquinoline-6-carboxamide] was tested. Which “Binding assay (1 μLM)” value did it give?
**A.** Its value is “++”.

**Q.** Which “Binding assay (1 μLM)” value does the source give for C[C@H](NC(=O)c1ccc2c(c1)CCCN2Cc1cc(-c2ccccc2C(N)=O)ccc1F)c1ccc2ccccc2c1 [Example 140, (S)-1-((2′-carbamoyl-4-fluoro-[1,1′-biphenyl]-3-yl)methyl)-N-(1-(naphthalene-2-yl)ethyl)-1,2,3,4-tetrahydroquinoline-6-carboxamide] here?
**A.** Its value is “++++”.

**Q.** Which “Binding assay (1 μLM)” value does the source give for C[C@H](NC(=O)c1ccc2c(c1)CCCN2Cc1ccc(-c2ccccc2C(=O)O)cc1)c1cccc2ccccc12 [Example 10, (S)-4′-((6-((1-(naphthalene-1-yl)ethyl)carbamoyl)-3,4-dihydroquinoline-1(2H)-yl)methyl)-[1,1′-biphenyl]-2-carboxylic acid] here?
**A.** Its value is “+++”.

**Q.** For C[C@H](NC(=O)c1ccc2c(c1)CCCN2Cc1ccc(-c2ccccc2C(=O)O)cc1)c1cccc(F)c1 [Example 17, (S)-4′-((6-((1-(3-fluorophenyl)ethyl)carbamoyl)-3,4-dihydroquinoline-1(2H)-yl)methyl)-[1,1′-biphenyl]-2-caboxylic acid], which “Binding assay (1 μLM)” value is on record?
**A.** The value was “+++”.

**Q.** Which “Binding assay (1 μLM)” value does the source give for C[C@H](NC(=O)c1ccc2c(c1)CCCN2Cc1ccccc1-c1ccc(C(N)=O)cc1)c1ccc(C#N)cc1 [Example 161, (S)-1-((4′-carbamoyl-[1,1′-biphenyl]-2-yl)methyl)-N-(1-(4-cyanophenyl)ethyl)-1,2,3,4-tetrahydroquinoline-6-carboxamide] here?
**A.** Its value is “++”.

**Q.** For O=C(NCc1ccc(Br)cc1)c1ccc2c(c1)OCCN2Cc1ccc(-c2ccccc2C(=O)O)cc1 [Example 73, 4′-((7-((4-bromobenzyl)carbamoyl)-2H-benzo[b][1,4]oxazine-4(3H)-yl)methyl)-[1,1′-biphenyl]-2-carboxylic acid], which “Binding assay (1 μLM)” value is on record?
**A.** Its value is “+”.

**Q.** How did the “Binding assay (1 μLM)” value turn out when C[C@H](NC(=O)c1ccc2c(c1)CCCN2Cc1ccc(-c2ccccc2C(N)=O)cc1)c1cccc(C(F)(F)F)c1 [Example 47, (S)-1-((2′-carbamoyl-[1,1′-biphenyl]-4-yl)methyl)-N-(1-(3-(trifluoromethyl)phenyl)ethyl)-1,2,3,4-tetrahydroquinoline-6-carboxamide] was run?
**A.** The value was “+++”.

**Q.** Which “Binding assay (1 μLM)” value does the source give for C[C@H](NC(=O)c1ccc2c(c1)OCCN2Cc1ccc(-c2ccccc2C(=O)O)cc1)c1ccc(Cl)cc1 [Example 64, (S)-4′-((7-((1-(4-chlorophenyl)ethyl)carbamoyl)-2H-benzo[b][1,4]oxazine-4(3H)-yl)methyl)-[1,1′-biphenyl]-2-carboxylic acid] here?
**A.** The value was “+”.

**Q.** With C[C@H](NC(=O)c1ccc2c(c1)CCCN2Cc1ccc(-c2ccccc2C(=O)O)cc1)c1ccc([N+](=O)[O-])cc1 [Example 3, (S)-4′-((6-((1-(4-nitrophenyl)ethyl)carbamoyl)-3,4-dihydroquinoline-1(2H)-yl)methyl)-[1,1′-biphenyl]-2-caboxylic acid] as the compound, how does the “Binding assay (1 μLM)” value read?
**A.** Its value is “+”.

**Q.** With C[C@H](NC(=O)c1ccc2c(c1)CCCN2Cc1ccc(-c2ccccc2C(=O)O)cc1)c1ccc(SC(F)(F)F)cc1 [Example 13, (S)-4′-((6-((1-(4-((trifluoromethyl)thio)phenyl)ethyl)carbamoyl)-3,4-dihydroquinoline-1 (2H)-yl)methyl)-[1,1′-biphenyl]-2-carboxylic acid] as the compound, how does the “Binding assay (1 μLM)” value read?
**A.** Its value is “++++”.

**Q.** With COc1ccccc1[C@H](C)NC(=O)c1ccc2c(c1)CCCN2Cc1ccc(-c2ccccc2C(N)=O)cc1 [Example 41, (S)-1-((2′-carbamoyl-[1,1′-biphenyl]-4-yl)methyl)-N-(1-(2-methoxyphenyl)ethyl)-1,2,3,4-tetrahydroquinoline-6-carboxamide] as the compound, how does the “Binding assay (1 μLM)” value read?
**A.** The value was “+++”.

**Q.** Which “Binding assay (1 μLM)” value does the source give for Cc1ccc([C@H](C)NC(=O)c2ccc3c(c2)CCCN3Cc2cccc(-c3ccccc3C(=O)O)c2)cc1F [Example 121, (S)-3′-((6-((1-(3-fluoro-4-methylphenyl)ethyl)carbamoyl)-3,4-dihydroquinoline-1(2H)-yl)methyl)-[1,1′-biphenyl]-2-carboxylic acid] here?
**A.** The value was “+++”.

**Q.** How did the “Binding assay (1 μLM)” value turn out when C[C@H](NC(=O)c1ccc2c(c1)OCCN2Cc1ccccc1-c1ccc(C(N)=O)cc1)c1ccc2ccccc2c1 [Example 151, (S)-4-((4′-carbamoyl-[1,1′-biphenyl]-2-yl)methyl)-N-(1-(naphthalene-2-yl)ethyl)-3,4-dihydro-2H-benzo[b][1,4]oxazine-7-carboxamide] was run?
**A.** Its value is “+++”.

**Q.** NC(=O)c1ccccc1-c1ccc(CN2CCCc3cc(C(=O)NCc4cccc(OC(F)(F)F)c4)ccc32)cc1 [Example 54, 1-((2′-carbamoyl-[1,1′-biphenyl]-4-yl)methyl)-N-(3-(trifluoromethoxy)benzyl)-1,2,3,4-tetrahydroquinoline-6-carboxamide] was tested. Which “Binding assay (1 μLM)” value did it give?
**A.** The value was “+++”.

**Q.** With NC(=O)c1ccccc1-c1ccc(CN2CCCc3cc(C(=O)NCc4ccncc4)ccc32)cc1 [Example 48, 1-((2′-carbamoyl-[1,1′-biphenyl]-4-yl)methyl)-N-(pyridine-4-ylmethyl)-1,2,3,4-tetrahydroquinoline-6-carboxamide] as the compound, how does the “Binding assay (1 μLM)” value read?
**A.** Its value is “+”.

**Q.** With C[C@H](NC(=O)c1ccc2c(c1)CCCN2Cc1cccc(-c2ccccc2C(=O)O)c1F)c1ccccc1 [Example 126, (S)-2′-fluoro-3′-((6-((1-phenylethyl)carbamoyl)-3,4-dihydroquinoline-1(2H)-yl)methyl)-[1,1′-biphenyl]-2-carboxylic acid] as the compound, how does the “Binding assay (1 μLM)” value read?
**A.** Its value is “+++”.

**Q.** With NC(=O)c1ccccc1-c1ccc(CN2CCCc3cc(C(=O)NCc4ccc5c(c4)OCCO5)ccc32)cc1 [Example 52, 1-((2′-carbamoyl-[1,1′-biphenyl]-4-yl)methyl)-N-((2,3-dihydrobenzo[b][1,4]dioxin-6-yl)methyl)-1,2,3,4-tetrahydroquinoline-6-carboxamide] as the compound, how does the “Binding assay (1 μLM)” value read?
**A.** Its value is “+++”.

**Q.** How did the “Binding assay (1 μLM)” value turn out when C[C@H](NC(=O)c1ccc2c(c1)CCCN2Cc1cc(-c2ccccc2C(=O)O)ccc1F)c1ccccc1 [Example 134, (S)-4′-fluoro-3′-((6-((1-phenylethyl)carbamoyl)-3,4-dihydroquinoline-1(2H)-yl)methyl)-[1,1′-biphenyl]-2-carboxylic acid] was run?
**A.** Its value is “++++”.

**Q.** With Cc1ccc([C@H](C)NC(=O)c2ccc3c(c2)CCCN3Cc2cc(-c3ccccc3C(=O)O)ccc2F)cc1F [Example 138, (S)-4′-fluoro-3′-((6-((1-(3-fluoro-4-methylphenyl)ethyl)carbamoyl)-3,4-dihydroquinoline-1(2H)-yl)methyl)-[1,1′-biphenyl]-2-caboxylic acid] as the compound, how does the “Binding assay (1 μLM)” value read?
**A.** The value was “++++”.

**Q.** C[C@H](NC(=O)c1ccc2c(c1)CCCN2Cc1ccc(-c2ccccc2C(=O)O)cc1)c1ccc(F)c(F)c1 [Example 21, (S)-4′-((6-((1-(3,4-fluorophenyl)ethyl)carbamoyl)-3,4-dihydroquinoline-1 (2H)-yl)methyl)-[1,1′-biphenyl]-2-carboxylic acid] was tested. Which “Binding assay (1 μLM)” value did it give?
**A.** The value was “+++”.

**Q.** For O=C(NCc1ccccn1)c1ccc2c(c1)CCCN2Cc1ccc(-c2ccccc2C(=O)O)cc1 [Example 26, 4′-((6-((pyridine-2-ylmethyl)carbamoyl)-3,4-dihydroquinoline-1(2H)-yl)methyl)-[1,1′-biphenyl]-2-carboxylic acid], which “Binding assay (1 μLM)” value is on record?
**A.** The value was “++”.

**Q.** With Cc1ccc([C@H](C)NC(=O)c2ccc3c(c2)CCCN3Cc2ccc(-c3ccccc3C(N)=O)cc2)cc1F [Example 49, (S)-1-((2′-carbamoyl-[1,1′-biphenyl]-4-yl)methyl)-N-(1-(3-fluoro-4-methylphenyl)ethyl)-1,2,3,4-tetrahydroquinoline-6-carboxamide] as the compound, how does the “Binding assay (1 μLM)” value read?
**A.** Its value is “+++”.

**Q.** Which “Binding assay (1 μLM)” value does the source give for C[C@H](NC(=O)c1ccc2c(c1)OCCN2Cc1ccccc1-c1ccc(C(=O)O)cc1)c1ccc(C#N)cc1 [Example 144, (S)-2′-((7-((1-(4-cyanophenyl)ethyl)carbamoyl)-2H-benzo[b][1,4]oxazine-4(3H)-yl)methyl)-[1,1′-biphenyl]-4-carboxylic acid] here?
**A.** Its value is “+”.

**Q.** O=C(NCc1ccncc1)c1ccc2c(c1)CCCN2Cc1ccc(-c2ccccc2C(=O)O)cc1 [Example 27, 4′-((6-((pyridine-4-ylmethyl)carbamoyl)-3,4-dihydroquinoline-1(2H)-yl)methyl)-[1,1′-biphenyl]-2-carboxylic acid] was tested. Which “Binding assay (1 μLM)” value did it give?
**A.** Its value is “+”.

**Q.** For C[C@H](NC(=O)c1ccc2c(c1)OCCN2Cc1ccc(-c2ccccc2C(=O)O)cc1)c1cccc(OC(F)(F)F)c1 [Example 85, (S)-4′-((7-((1-(3-(trifluoromethoxy)phenyl)ethyl)carbamoyl)-2H-benzo[b][1,4]oxazine-4(3H)-yl)methyl)-[1,1′-biphenyl]-2-carboxylic acid], which “Binding assay (1 μLM)” value is on record?
**A.** The value was “+++”.
